Measured values taken from US6461997B1, “Triazole sulfones having herbicidal activity” (Monsanto Technology LLC, priority 1999, dated 2002).

Key:
[1] = tested on: SORHA (johnsongrass (seedling)); test: Pre-emergence herbicidal activity, warm season; assay type: in vivo, Sorghum halepense; details: for Pre-emergence activity (GR80) SORHA: GR80 = lowest tested rate (300, 100, 30, 10 g/ha) with 80% or greater inhibition, approx. 14 days after treating, 30/21° C.; for inhibition at 10 g/ha / inhibition at 30 g/ha / inhibition at 100 g/ha / inhibition at 300 g/ha / inhibition at 900 g/ha: Sorghum halepense, pre-emergence application, read-out: Percent inhibition, weed SORHA
Procedure, shortened: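 Activity is expressed as the rate giving 80% inhibition, with 300, 100, 30 and 10 g/ha typically tested. An asterisk marks activity short of 80% at the top rate. Warm-season grasses were held at 30/21 °C; cool-season blackgrass and wild buckwheat at 18/13 °C; scoring at about 14 days.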

[2] = tested on: DIGSA (large crabgrass); test: Pre-emergence herbicidal activity, warm season; assay type: in vivo, Digitaria sanguinalis; details: for inhibition at 10 g/ha / inhibition at 30 g/ha / inhibition at 100 g/ha / inhibition at 300 g/ha / inhibition at 900 g/ha: Digitaria sanguinalis, pre-emergence application, read-out: Percent inhibition, weed DIGSA; for Pre-emergence activity (GR80) DIGSA: GR80 = lowest tested rate (300, 100, 30, 10 g/ha) with 80% or greater inhibition, approx. 14 days after treating, 30/21° C.
Procedure, shortened: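 Herbicidal efficacy was judged visually as percent inhibition compared with untreated plants some 14 days after treatment, giving GR80 over doses of 10 to 300 g/ha. Proso millet and crabgrass grew at 30/21 °C; blackgrass and wild buckwheat grew at 18/13 °C.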

[3] = tested on: SORVU (shattercane); test: Pre-plant incorporated (PPI) herbicidal activity, warm season; assay type: in vivo, Sorghum vulgare; details: for inhibition at 10 g/ha / inhibition at 30 g/ha / inhibition at 100 g/ha / inhibition at 300 g/ha / inhibition at 900 g/ha: Sorghum bicolor, read-out: Percent inhibition SORVU; for inhibition at 10 g/ha / inhibition at 30 g/ha / inhibition at 100 g/ha / inhibition at 300 g/ha / inhibition at 900 g/ha / Percent inhibition SORVU: PPI application; for PPI activity GR80, SORVU: pre-plant incorporated, lowest tested rate with 80% or greater inhibition, about 14 days
Description: (§1) In another set of tests, the pre-plant incorporated (PPI) activity of compounds of this invention was evaluated on the same species as for the pre-emergence tests described above. In the PPI tests the following procedure, designed to simulate PPI application, was used.
(§2) A pre-prepared topsoil mixture (described above) was placed in a pot and compacted to a depth of 1.0 to 1.25 cm from the top of the pot. Seeds of each of several monocotyledonous and dicotyledonous annual plant species were placed on top of the soil. A sufficient quantity of soil to cover the seeds and level fill the pot was weighed into an open container. A known amount of the test compound was dissolved or suspended in an organic solvent and applied by spraying to this cover soil. The cover soil was thoroughly mixed to distribute the test compound throughout the cover soil, and was then applied as a cover layer over the seeds. Untreated soil was used as a cover layer for control pots. After treatment the plants were placed in a greenhouse where they received 0.64 cm of overhead irrigation. All subsequent watering consisted of a light overhead mist and/or subirrigation as needed for germination and growth. Tables 9 and 10 below relate to warm season plant species which were placed after pre-emergence treatment in a greenhouse with a 30/21° C. day/night temperature regime. Tables 11 and 12 below relates to cool season plant species placed after pre-emergence treatment in a greenhouse or growth chamber with an 18/13° C. day/night temperature regime. Only the compounds of Examples 1, 6, 8, 11, 13 and 15-20 were included in PPI tests.
(§3) Approximately 14 days after planting and treating, the plants were observed and herbicidal efficacy recorded as percent inhibition by comparison with untreated plants.

[4] = tested on: AGRRE (quackgrass (seedling)); test: Pre-plant incorporated (PPI) herbicidal activity, cool season; assay type: in vivo, Elymus repens; details: for PPI activity GR80, AGRRE: pre-plant incorporated, lowest tested rate with 80% or greater inhibition, about 14 days
Description: as §1, §2, §3

[5] = tested on: rice (ORYSA); test: Selectivity test, PPI, warm season crop; assay type: in vivo, Oryza sativa; details: PPI application; for inhibition at 10 g/ha / inhibition at 30 g/ha / inhibition at 100 g/ha / inhibition at 300 g/ha / inhibition at 900 g/ha: Oryza sativa, read-out: Percent inhibition ORYSA
Description: as §2, §3
(§4) Additional pre-emergence and PPI tests were conducted by the procedures described above, on warm and cool season weed species in the presence of crop species, to assess herbicidal selectivity. Crop species included in warm season tests were corn (Zea mays, ZEAMX), rice (Oryza sativa, ORYSA) and soybean (Glycine max, GLYMX). Crop species included in cool season tests were wheat (Triticum aestivum, TRZAW), barley (Hordeunm vulgare, HORVX) and oilseed rape (Brassica napus, BRSNS).
(§5) Tables 15 and 16 relate to pre-emergence and PPI tests respectively on warm season species. Table 17 relates to pre-emergence tests on cool season species.

[6] = tested on: oilseed rape (BRSNS); test: Selectivity test, PPI, cool season crop; assay type: in vivo, Brassica napus; details: PPI application
Description: as §2, §3, §4, §5

[7] = weed, PPI application, 100 g/ha
[8] = weed, PPI application, 300 g/ha
[9] = weed, PPI application, 900 g/ha

Compound: CCN(CC)C(=O)n1cnc(S(=O)(=O)C(F)(F)Br)n1 [Example 1, 3-(bromodifluoromethylsulfonyl)-1-(N,N-diethylcarbamoyl)-1,2,4-triazole]
- Pre-emergence activity (GR80) SORHA [1]: 30 g/ha
- inhibition at 10 g/ha [1]: 0%
- inhibition at 30 g/ha [1]: 0%
- inhibition at 100 g/ha [1]: 50%
- inhibition at 300 g/ha [1]: 70%
- inhibition at 900 g/ha [1]: 99%
- inhibition at 10 g/ha [2]: 0%
- inhibition at 30 g/ha [2]: 60%
- inhibition at 100 g/ha [2]: 100%
- inhibition at 300 g/ha [2]: 100%
- inhibition at 900 g/ha [2]: 100%
- Pre-emergence activity (GR80) DIGSA [2]: 30 g/ha
- inhibition at 10 g/ha ([3]; 10 g/ha): 20%
- inhibition at 30 g/ha ([3]; 30 g/ha): 80%
- inhibition at 100 g/ha ([3]; 100 g/ha): 100%
- inhibition at 300 g/ha ([3]; 300 g/ha): 100%
- inhibition at 900 g/ha ([3]; 900 g/ha): 100%
- PPI activity GR80, SORVU [3]: 100 g/ha
- inhibition at 30 g/ha ([4]; Elymus repens, weed, PPI application, 30 g/ha, read-out: Percent inhibition AGRRE): 0%
- inhibition at 100 g/ha ([4]; Elymus repens, weed, PPI application, 100 g/ha, read-out: Percent inhibition AGRRE): 20%
- inhibition at 300 g/ha ([4]; Elymus repens, weed, PPI application, 300 g/ha, read-out: Percent inhibition AGRRE): 60%
- inhibition at 900 g/ha ([4]; Elymus repens, weed, PPI application, 900 g/ha, read-out: Percent inhibition AGRRE): 95%
- PPI activity GR80, AGRRE [4]: * (activity observed, at least at highest rate, but <80% inhibition)
- inhibition at 10 g/ha ([5]; 10 g/ha): 0%
- inhibition at 30 g/ha ([5]; 30 g/ha): 0%
- inhibition at 100 g/ha ([5]; 100 g/ha): 40%
- inhibition at 300 g/ha ([5]; 300 g/ha): 60%
- inhibition at 900 g/ha ([5]; 900 g/ha): 90%
- inhibition at 30 g/ha ([6]; Brassica napus, 30 g/ha, read-out: Percent inhibition BRSNS): 60%
- inhibition at 100 g/ha ([6]; Brassica napus, 100 g/ha, read-out: Percent inhibition BRSNS): 20%
- inhibition at 300 g/ha ([6]; Brassica napus, 300 g/ha, read-out: Percent inhibition BRSNS): 99%
- inhibition at 900 g/ha ([6]; Brassica napus, 900 g/ha, read-out: Percent inhibition BRSNS): 100%

Compound: CCN(CC)C(=O)n1cnc(S(=O)(=O)C(F)(F)C(=O)c2ccccc2)n1 [Example 6]
- Pre-emergence activity (GR80) SORHA [1]: 100 g/ha
- Pre-emergence activity (GR80) DIGSA [2]: 300 g/ha
- PPI activity GR80, SORVU [3]: 300 g/ha
- PPI activity GR80, AGRRE [4]: 300 g/ha

Compound: CCN(CC)C(=O)n1cnc(S(=O)(=O)C(F)(F)SCC(=O)OC)n1 [Example 11]
- Pre-emergence activity (GR80) SORHA [1]: 300 g/ha
- Percent inhibition SORVU ([3]; 10 g/ha): 0%
- Percent inhibition SORVU ([3]; 30 g/ha): 0%
- Percent inhibition SORVU ([3]; 100 g/ha): 10%
- Percent inhibition SORVU ([3]; 300 g/ha): 65%
- Percent inhibition SORVU ([3]; 900 g/ha): 100%
- PPI activity GR80, SORVU [3]: 300 g/ha
- PPI activity GR80, AGRRE [4]: * (activity observed, at least at highest rate, but <80% inhibition)
- Percent inhibition AGRRE ([4]; weed, PPI application, 10 g/ha): 0%
- Percent inhibition AGRRE ([4]; weed, PPI application, 30 g/ha): 0%
- Percent inhibition AGRRE [4, 7]: 0%
- Percent inhibition AGRRE [4, 8]: 0%
- Percent inhibition AGRRE [4, 9]: 0%
- Percent inhibition ORYSA ([5]; 10 g/ha): 0%
- Percent inhibition ORYSA ([5]; 30 g/ha): 0%
- Percent inhibition ORYSA ([5]; 100 g/ha): 0%
- Percent inhibition ORYSA ([5]; 300 g/ha): 40%
- Percent inhibition ORYSA ([5]; 900 g/ha): 40%
- Percent inhibition BRSNS ([6]; 10 g/ha): 0%
- Percent inhibition BRSNS ([6]; 30 g/ha): 0%
- Percent inhibition BRSNS ([6]; 100 g/ha): 0%
- Percent inhibition BRSNS ([6]; 300 g/ha): 0%
- Percent inhibition BRSNS ([6]; 900 g/ha): 0%

Compound: CCN(CC)C(=O)n1cnc(S(=O)(=O)C(F)(F)SCCOC)n1 [Example 13]
- Percent inhibition SORVU ([3]; 10 g/ha): 0%
- Percent inhibition SORVU ([3]; 30 g/ha): 50%
- Percent inhibition SORVU ([3]; 100 g/ha): 90%
- Percent inhibition SORVU ([3]; 300 g/ha): 100%
- Percent inhibition SORVU ([3]; 900 g/ha): 100%
- PPI activity GR80, SORVU [3]: 300 g/ha
- PPI activity GR80, AGRRE [4]: * (activity observed, at least at highest rate, but <80% inhibition)
- Percent inhibition AGRRE ([4]; weed, PPI application, 10 g/ha): 0%
- Percent inhibition AGRRE ([4]; weed, PPI application, 30 g/ha): 0%
- Percent inhibition AGRRE [4, 7]: 20%
- Percent inhibition AGRRE [4, 8]: 40%
- Percent inhibition AGRRE [4, 9]: 60%
- Percent inhibition ORYSA ([5]; 10 g/ha): 0%
- Percent inhibition ORYSA ([5]; 30 g/ha): 30%
- Percent inhibition ORYSA ([5]; 100 g/ha): 70%
- Percent inhibition ORYSA ([5]; 300 g/ha): 60%
- Percent inhibition ORYSA ([5]; 900 g/ha): 80%
- Percent inhibition BRSNS ([6]; 10 g/ha): 0%
- Percent inhibition BRSNS ([6]; 30 g/ha): 0%
- Percent inhibition BRSNS ([6]; 100 g/ha): 0%
- Percent inhibition BRSNS ([6]; 300 g/ha): 70%
- Percent inhibition BRSNS ([6]; 900 g/ha): 30%

Compound: CCN(CC)C(=O)n1cnc(S(=O)(=O)C(F)(F)C(F)(F)SC)n1 [Example 14]
- Pre-emergence activity (GR80) SORHA [1]: 300 g/ha
- Pre-emergence activity (GR80) DIGSA [2]: 100 g/ha

Compound: CCN(CC)C(=O)n1cnc(S(=O)(=O)C(F)F)n1 [Example 15, 1-(N,N-diethylcarbamoyl)-3-(difluoromethylsulfonyl)-1,2,4-triazole]
- Pre-emergence activity (GR80) SORHA [1]: 100 g/ha
- inhibition at 10 g/ha [1]: 0%
- inhibition at 30 g/ha [1]: 0%
- inhibition at 100 g/ha [1]: 30%
- inhibition at 300 g/ha [1]: 95%
- inhibition at 900 g/ha [1]: 100%
- inhibition at 10 g/ha [2]: 70%
- inhibition at 30 g/ha [2]: 40%
- inhibition at 100 g/ha [2]: 80%
- inhibition at 300 g/ha [2]: 100%
- inhibition at 900 g/ha [2]: 100%
- Pre-emergence activity (GR80) DIGSA [2]: 30 g/ha
- inhibition at 10 g/ha ([3]; 10 g/ha): 10%
- inhibition at 30 g/ha ([3]; 30 g/ha): 60%
- inhibition at 100 g/ha ([3]; 100 g/ha): 100%
- inhibition at 300 g/ha ([3]; 300 g/ha): 100%
- inhibition at 900 g/ha ([3]; 900 g/ha): 100%
- PPI activity GR80, SORVU [3]: 300 g/ha
- PPI activity GR80, AGRRE [4]: 300 g/ha
- inhibition at 10 g/ha ([5]; 10 g/ha): 0%
- inhibition at 30 g/ha ([5]; 30 g/ha): 0%
- inhibition at 100 g/ha ([5]; 100 g/ha): 0%
- inhibition at 300 g/ha ([5]; 300 g/ha): 0%
- inhibition at 900 g/ha ([5]; 900 g/ha): 0%
